Literature values as cited in patent US20250073182A1, “LOW DOSAGE GOSSYPOL CON[…] RODENTS” (priority 2023, published 2025).

Key:
female rats = female rats (Gadelha et al. 2014; Lin, et al., 1985)
[1] = tested on: ovarian follicles of female mice; details: in vitro, all stages of development (Luz et al. 2018; Ding et al. 2021)
[2] = gossypol in cottonseed meal at 15 mg/kg per day for 4 weeks
[3] = low doses, after 4 weeks (Nadakavukaren et al. 1979)

Cc1cc2c(C(C)C)c(O)c(O)c(C=O)c2c(O)c1-c1c(C)cc2c(C(C)C)c(O)c(O)c(C=O)c2c1O (atropisomer, axis not shown) [gossypol]
seminal vesicle weight (male mice; 20 or 40 mg/kg body weight, 3 weeks (Singh and Rath, 1990)): significant decrease | sperm counts (male mice; two mouse strains, 10 and 20 mg/kg BW orally for 4 weeks (Hunt and Mittwoch 1984)): reduced | estrous cycle (female rats): longer estrous cycle | number of atretic follicles [1]: increased | number of viable follicles [1]: significantly decreased | epididymal and accessory sex glands weights (male rats; daily 30 mg/kg for 6 weeks or 7.5 and 15 mg/kg for 12 weeks (Chang et al. 1982)): reduced | fertility (male rats; [2]): reduced | toxicity (male rats; [2]): absent | effects at high doses in rats (male rats; high doses (Romualdo et al. 2002; Gadelha et al. 2014)): reduced food intake, anorexia, and hepatic toxicity | offspring produced (male rats; [3]): no offspring were produced | spermatozoa with defects (male rats; [3]): over 50% | pregnancy rates (male rats; male rats given ≥10 mg/kg/d, bred to fertile females, as early as 6 weeks (Randel et al. 1992)): significantly lower | fertility after withdrawal of treatment (male rats; rats (Chang et al. 1982)): recovery in fertility
